Measurements as given in US20100076015A1, “Aminopyridine Derivatives” (VANTIA LIMITED, priority 2008, published 2010).

biological target: T1, Human KLK1 (Homo sapiens, UniProt P06870); experiment: Determination of the IC50 for KLK1 (fluorogenic substrate H-DVal-Leu-Arg-AFC); type: biochemical; settings: 37° C.
T1 construct: purchased Callbiochem (Calbiochem)
Description: Determination of the IC50 for KLK1
KLK1 inhibitory activity in vitro was determined using standard published methods (see e.g. Johansen et al., Int. J. Tiss. Reac. 1986, 8, 185; Shori et al., Biochem. Pharmacol., 1992, 43, 1209; Stürzebecher et al., Biol. Chem. Hoppe-Seyler, 1992, 373, 1025). Human KLK1 (Callbiochem) was incubated at 37° C. with the fluorogenic substrate H-DVal-Leu-Arg-AFC and various concentrations of the test compound. Residual enzyme activity (initial rate of reaction) was determined by measuring the change in optical absorbance at 410 nm and the IC50 value for the test compound was determined.

T1 sequence (P06870 25-262): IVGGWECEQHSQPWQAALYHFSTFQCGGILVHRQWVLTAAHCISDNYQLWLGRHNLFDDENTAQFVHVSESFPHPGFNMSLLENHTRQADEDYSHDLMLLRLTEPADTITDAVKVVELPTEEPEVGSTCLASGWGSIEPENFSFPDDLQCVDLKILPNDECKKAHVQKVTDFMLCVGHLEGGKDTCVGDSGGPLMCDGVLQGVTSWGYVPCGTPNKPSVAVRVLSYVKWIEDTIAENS

Row | IC50 [nM] | SMILES
1 | 11.2 | CCC(C)[C@@H](NC)C(=O)N[C@@H](Cc1ccc(F)c(F)c1)C(=O)NCc1ccc(N)nc1 (single isomer, unassigned) [Example 53]
2 | 2 | CC(C)N1CCC[C@@H]1C(=O)N[C@@H](Cc1ccc(F)c(F)c1)C(=O)NCc1ccc(N)nc1 [Example 6, (R)-1-Isopropyl-pyrrolidine-2-carboxylic acid [(S)-1-[(6-amino-pyridin-3-ylmethyl)-carbamoyl]-2-(3,4-difluoro-phenyl)-ethyl]-amide]
3 | 10.5 | Nc1ccc(CNC(=O)[C@H](Cc2ccc(Cl)c(Cl)c2)NC(=O)[C@H]2CCCN2Cc2ccccc2)cn1 [Example 7, (R)-1-Benzyl-pyrrolidine-2-carboxylic acid [(S)-1-[(6-amino-pyridin-3-ylmethyl)-carbamoyl]-2-(3,4-dichloro-phenyl)-ethyl]-amide]
4 | 1.7 | CCC(C)[C@H](C(=O)N[C@@H](Cc1ccc(Cl)c(Cl)c1)C(=O)NCc1ccc(N)nc1)N(C)S(C)(=O)=O (stereo partly drawn) [Example 8, (R)-2-(Methanesulfonyl-methyl-amino)-3-methyl-pentanoic acid [(S)-1-[(6-amino-pyridin-3-ylmethyl)-carbamoyl]-2-(3,4-dichloro-phenyl)-ethyl]-amide]
5 | 6.3 | Cc1nc(N)ccc1CNC(=O)[C@H](Cc1cccc2ccccc12)NC(=O)[C@H]1CCCN1C [Example 9, (R)-1-Methyl-pyrrolidine-2-carboxylic acid [(S)-1-[(6-amino-2-methyl-pyridin-3-ylmethyl)-carbamoyl]-2-naphthalen-1-yl-ethyl]-amide]
6 | 13.7 | CCN(CC)CC(=O)N[C@@H](Cc1ccc(F)c(F)c1)C(=O)NCc1ccc(N)nc1 [Example 10, (S)—N-(6-Amino-pyridin-3-ylmethyl)-2-(2-diethylamino-acetylamino)-3-(3,4-difluoro-phenyl)-propionamide]
7 | 6.3 | CCC(C)[C@H](N)C(=O)N[C@@H](CC1CCCC2CCCCC21)C(=O)NCc1ccc(N)nc1 (stereo partly drawn) [Example 12, (S)-2-Amino-3-methyl-pentanoic acid [(S)-1-[(6-amino-pyridin-3-ylmethyl)-carbamoyl]-2-(decahydro-naphthalen-1-yl)-ethyl]-amide]
8 | 0.96 | CC(C)[C@@H](N)C(=O)N[C@@H](CC1CCCC2CCCCC21)C(=O)NCc1ccc(N)nc1 (stereo partly drawn) [Example 14, (R)-2-Amino-N-[(S)-1-[(6-amino-pyridin-3-ylmethyl)-carbamoyl]-2-(decahydro-naphthalen-1-yl)-ethyl]-3-methyl-butyramide]
9 | 1.2 | Nc1ccc(CNC(=O)[C@H](CC2CCCC3CCCCC32)NC(=O)[C@H]2CCCN2)cn1 (stereo partly drawn) [Example 15, (R)-Pyrrolidine-2-carboxylic acid [(S)-1-[(6-amino-pyridin-3-ylmethyl)-carbamoyl]-2-(decahydro-naphthalen-1-yl)-ethyl]-amide]
10 | 1.1 | CC(C)C[C@@H](N)C(=O)N[C@@H](CC1CCCC2CCCCC21)C(=O)NCc1ccc(N)nc1 (stereo partly drawn) [Example 16, (R)-2-Amino-4-methyl-pentanoic acid [(S)-1-[(6-amino-pyridin-3-ylmethyl)-carbamoyl]-2-(decahydro-naphthalen-1-yl)-ethyl]-amide]
11 | 211 | NCC(=O)N[C@@H](CC1CCCC2CCCCC21)C(=O)NCc1ccc(N)nc1 (stereo partly drawn) [Example 17, (S)-2-(2-Amino-acetylamino)-N-(6-amino-pyridin-3-ylmethyl)-3-(decahydro-naphthalen-1-yl)-propionamide]
12 | 5 | C[C@@H](N)C(=O)N[C@@H](CC1CCCC2CCCCC21)C(=O)NCc1ccc(N)nc1 (stereo partly drawn) [Example 18, (R)-2-Amino-N-[(S)-1-[(6-amino-pyridin-3-ylmethyl)-carbamoyl]-2-(decahydro-naphthalen-1-yl)-ethyl]-propionamide]
13 | 21.6 | CNCC(=O)N[C@@H](CC1CCCC2CCCCC21)C(=O)NCc1ccc(N)nc1 (stereo partly drawn) [Example 19, (S)—N-(6-Amino-pyridin-3-ylmethyl)-3-(decahydro-naphthalen-1-yl)-2-(2-methylamino-acetylamino)-propionamide]
14 | 22.8 | CCC(C)[C@@H](NC)C(=O)N[C@@H](CC1CCCCC1)C(=O)NCc1ccc(N)nc1 (stereo partly drawn) [Example 21, (R)-3-Methyl-2-methylamino-pentanoic acid {(S)-1-[(6-amino-pyridin-3-ylmethyl)-carbamoyl]-2-cyclohexyl-ethyl}-amide]
15 | 2.2 | CC(C)[C@@H](N)C(=O)N[C@@H](Cc1cccc2ccccc12)C(=O)NCc1ccc(N)nc1 [Example 22, (R)-2-Amino-N-{(S)-1-[(6-amino-pyridin-3-ylmethyl)-carbamoyl]-2-naphthalen-1-yl-ethyl}-3-methyl-butyramide]
16 | 27.8 | CCC(C)[C@@H](N)C(=O)N[C@@H](Cc1ccccc1Cl)C(=O)NCc1ccc(N)nc1 (stereo partly drawn) [Example 24, (R)-2-Amino-3-methyl-pentanoic acid [(S)-1-[(6-amino-pyridin-3-ylmethyl)-carbamoyl]-2-(2-chloro-phenyl)-ethyl]-amide]

Row | IC50 [nM] | SMILES
17 | 32.1 | CCC(C)[C@@H](N)C(=O)N[C@@H](Cc1ccccc1C)C(=O)NCc1ccc(N)nc1 (stereo partly drawn) [Example 28, (R)-2-Amino-3-methyl-pentanoic acid {(S)-1-[(6-amino-pyridin-3-ylmethyl)-carbamoyl]-2-o-tolyl-ethyl}-amide]
18 | 18.1 | CCC(C)[C@@H](N)C(=O)N[C@@H](Cc1cccc(C#N)c1)C(=O)NCc1ccc(N)nc1 (stereo partly drawn) [Example 31, (R)-2-Amino-3-methyl-pentanoic acid [(S)-1-[(6-amino-pyridin-3-ylmethyl)-carbamoyl]-2-(3-cyano-phenyl)-ethyl]-amide]
19 | 2.8 | CCC(C)[C@@H](N)C(=O)N[C@@H](Cc1ccc(F)c(F)c1)C(=O)NCc1ccc(N)nc1 (stereo partly drawn) [Example 32, (R)-2-Amino-3-methyl-pentanoic acid [(S)-1-[(6-amino-pyridin-3-ylmethyl)-carbamoyl]-2-(3,4-difluoro-phenyl)-ethyl]-amide]
20 | 5.3 | CCC(C)[C@@H](N)C(=O)N[C@@H](Cc1ccc(F)cc1)C(=O)NCc1ccc(N)nc1 (stereo partly drawn) [Example 33, (R)-2-Amino-3-methyl-pentanoic acid [(S)-1-[(6-amino-pyridin-3-ylmethyl)-carbamoyl]-2-(4-fluoro-phenyl)-ethyl]-amide]
21 | 3.3 | CCC(C)[C@@H](N)C(=O)N[C@@H](Cc1ccc2ccccc2c1)C(=O)NCc1ccc(N)nc1 (stereo partly drawn) [Example 34, (R)-2-Amino-3-methyl-pentanoic acid {(S)-1-[(6-amino-pyridin-3-ylmethyl)-carbamoyl]-2-naphthalen-2-yl-ethyl}-amide]
22 | 0.47 | CCC(C)[C@@H](N)C(=O)N[C@@H](Cc1ccc(Cl)c(Cl)c1)C(=O)NCc1ccc(N)nc1 (stereo partly drawn) [Example 35, (R)-2-Amino-3-methyl-pentanoic acid [(S)-1-[(6-amino-pyridin-3-ylmethyl)-carbamoyl]-2-(3,4-dichloro-phenyl)-ethyl]-amide]
23 | 1.6 | CCC(C)[C@@H](N)C(=O)N[C@@H](Cc1ccc(Cl)cc1)C(=O)NCc1ccc(N)nc1 (stereo partly drawn) [Example 36, (R)-2-Amino-3-methyl-pentanoic acid [(S)-1-[(6-amino-pyridin-3-ylmethyl)-carbamoyl]-2-(4-chloro-phenyl)-ethyl]-amide]
24 | 626 | CCC(C)[C@@H](N)C(=O)N[C@@H](Cc1ccc(O)cc1)C(=O)NCc1ccc(N)nc1 (stereo partly drawn) [Example 37, (R)-2-Amino-3-methyl-pentanoic acid [(S)-1-[(6-amino-pyridin-3-ylmethyl)-carbamoyl]-2-(4-hydroxy-phenyl)-ethyl]-amide]
25 | 9.2 | CCC(C)[C@@H](N)C(=O)N[C@@H](Cc1cc(F)c(F)cc1F)C(=O)NCc1ccc(N)nc1 (stereo partly drawn) [Example 38, (R)-2-Amino-3-methyl-pentanoic acid [(S)-1-[(6-amino-pyridin-3-ylmethyl)-carbamoyl]-2-(2,4,5-trifluoro-phenyl)-ethyl]-amide]
26 | 5.8 | CCC(C)[C@@H](N)C(=O)N[C@@H](Cc1cc(F)cc(F)c1)C(=O)NCc1ccc(N)nc1 (stereo partly drawn) [Example 39, (R)-2-Amino-3-methyl-pentanoic acid [(S)-1-[(6-amino-pyridin-3-ylmethyl)-carbamoyl]-2-(3,5-difluoro-phenyl)-ethyl]-amide]
27 | 6.6 | CCC(C)[C@@H](N)C(=O)N[C@@H](Cc1c[nH]c2ccccc12)C(=O)NCc1ccc(N)nc1 (stereo partly drawn) [Example 40, (R)-2-Amino-3-methyl-pentanoic acid [(S)-1-[(6-amino-pyridin-3-ylmethyl)-carbamoyl]-2-(1H-indol-3-yl)-ethyl]-amide]
28 | 0.76 | CCC(C)[C@@H](N)C(=O)N[C@@H](Cc1csc2ccccc12)C(=O)NCc1ccc(N)nc1 (stereo partly drawn) [Example 41, (R)-2-Amino-3-methyl-pentanoic acid {(S)-1-[(6-amino-pyridin-3-ylmethyl)-carbamoyl]-2-benzo[b]thiophen-3-yl-ethyl}-amide]
29 | 1.4 | CCC(C)[C@@H](NC)C(=O)N[C@@H](Cc1cccc(C(F)(F)F)c1)C(=O)NCc1ccc(N)nc1 (stereo partly drawn) [Example 42, (R)-3-Methyl-2-methylamino-pentanoic acid [(S)-1-[(6-amino-pyridin-3-ylmethyl)-carbamoyl]-2-(3-trifluoromethyl-phenyl)-ethyl]-amide]
30 | 2.9 | CCC(C)[C@@H](NC)C(=O)N[C@@H](Cc1ccc(F)c(F)c1)C(=O)NCc1ccc(N)nc1 (stereo partly drawn) [Example 43, (R)-3-Methyl-2-methylamino-pentanoic acid [(S)-1-[(6-amino-pyridin-3-ylmethyl)-carbamoyl]-2-(3,4-difluoro-phenyl)-ethyl]-amide]
31 | 5.4 | CCC(C)[C@@H](NC)C(=O)N[C@@H](Cc1ccc(F)cc1)C(=O)NCc1ccc(N)nc1 (stereo partly drawn) [Example 44, (R)-3-Methyl-2-methylamino-pentanoic acid [(S)-1-[(6-amino-pyridin-3-ylmethyl)-carbamoyl]-2-(4-fluoro-phenyl)-ethyl]-amide]
